Measurements reported in US20240239854A1, “ANTIMICROBIAL PEPTIDES AND MODIFICATIONS THEREOF” (Donald Danforth Plant Science Center, priority 2022, published 2024).

Experiments:
Type in all cases: cell-based
[1] = system: Fusarium graminearum PH-1; conditions: for F. graminearum PH-1 MIC Day1: MIC Day 1, 96-well plate, resazurin cell viability; for MIC, in-vitro antifungal activity against F. graminearum: F. graminearum PH-1, 48 hours
Botrytis cinerea T4 = system: Botrytis cinerea T4
[2] = system: Zymoseptoria tritici IPO323

Substance: PD114.1.1: Lupinus albus wild-type defensin SEQ ID NO: 679 with N-terminal alanine, expressed in Pichia pastoris (RTCKSKSQRYKGSCYSDNNCAIICEGEGFTGGKCHGFFCKCWCKRPCL; N-terminal alanine added; listed as Lupinus albus)
- F. graminearum PH-1 MIC Day1 [1]: >12 µM
- B. cinerea T4 MIC Day1 (Botrytis cinerea T4): >12 µM

Substance: PD100.1.1: Prunus armeniaca wild-type defensin SEQ ID NO: 620 with N-terminal alanine, expressed in Pichia pastoris (QRGCKQASKSMTTCTAHPECDKKCKGEKAKMGLCRADGPKGKKCWCYMC; N-terminal alanine added; listed as Prunus armeniaca)
- F. graminearum PH-1 MIC Day1 [1]: 6 µM
- Z. tritici IPO323 MIC Day 1 [2]: 1 µM
- Z. tritici IPO323 MIC Day 7 [2]: 4 µM
- Z. tritici IPO323 MIC Day 14 [2]: 8 µM
- B. cinerea T4 MIC Day1 (Botrytis cinerea T4): 6 µM

Substance: PD86.1.1: Erythranthe guttata wild-type defensin SEQ ID NO: 555 with N-terminal alanine, expressed in Pichia pastoris (SLCETPSRYFNGICFSRRNCGAICEKEGFSSGRCKAFKCVCGKDC; N-terminal alanine added; listed as Erythranthe guttata)
- F. graminearum PH-1 MIC Day1 [1]: 6 µM
- Z. tritici IPO323 MIC Day 1 [2]: 7 µM
- Z. tritici IPO323 MIC Day 7 [2]: 12 µM
- Z. tritici IPO323 MIC Day 14 [2]: >12 µM
- B. cinerea T4 MIC Day1 (Botrytis cinerea T4): 12 µM

Substance: PD113.1.1: Gossypium hirsutum wild-type defensin SEQ ID NO: 674 with N-terminal alanine, expressed in Pichia pastoris (GPTIVGGRKCKSPSKKFNGMCMNHVNCATVCQTESHEDGKCEGFYRRCICIKPCF; N-terminal alanine added; listed as Gossypium hirsutum)
- F. graminearum PH-1 MIC Day1 [1]: 6 µM
- Z. tritici IPO323 MIC Day 1 [2]: 4 µM
- Z. tritici IPO323 MIC Day 7 [2]: 12 µM
- Z. tritici IPO323 MIC Day 14 [2]: >12 µM
- B. cinerea T4 MIC Day1 (Botrytis cinerea T4): 6 µM

Substance: PD93.1.1: Fragaria vesca wild-type defensin SEQ ID NO: 588 with N-terminal alanine, expressed in Pichia pastoris (KICEVPSKTFKGLCVKDRNCVVRCHSEGYGNGKCSHVRRQCMCLKICD; N-terminal alanine; listed as Fragaria vesca)
- F. graminearum PH-1 MIC Day1 [1]: >12 µM
- Z. tritici IPO323 MIC Day 1 [2]: 2 µM
- Z. tritici IPO323 MIC Day 7 [2]: 5 µM
- Z. tritici IPO323 MIC Day 14 [2]: 8 µM
- B. cinerea T4 MIC Day1 (Botrytis cinerea T4): 6 µM

Substance: PD81.1.1: Pinus sylvestris wild-type defensin SEQ ID NO: 534 with N-terminal alanine, expressed in Pichia pastoris (RMCKTPSGKFKGYCVSSTNCKNVCRTEGFPTGSCDFHVASRKCYCYKPC; N-terminal alanine added; listed as Pinus sylvestris)
- F. graminearum PH-1 MIC Day1 [1]: 1.5 µM
- Z. tritici IPO323 MIC Day 1 [2]: 0.5 µM
- Z. tritici IPO323 MIC Day 7 [2]: 0.75 µM
- Z. tritici IPO323 MIC Day 14 [2]: 3 µM
- B. cinerea T4 MIC Day1 (Botrytis cinerea T4): 1 µM
- MIC, in-vitro antifungal activity against B. cinerea (Botrytis cinerea T4; 48 hours): 1 µM

Substance: PD128.1.1: wild-type defensin-like protein SEQ ID NO: 734 with N-terminal alanine, expressed in Pichia pastoris (RVCLRRSKTWTGFCGNTRGFDSQCKRWECALHGACHC; N-terminal alanine added; listed as Lepidium sativum)
- F. graminearum PH-1 MIC Day1 [1]: >12 µM
- Z. tritici IPO323 MIC Day 1 [2]: 3 µM
- Z. tritici IPO323 MIC Day 7 [2]: 7 µM
- Z. tritici IPO323 MIC Day 14 [2]: 8 µM
- B. cinerea T4 MIC Day1 (Botrytis cinerea T4): 3 µM

Substance: PD123.1.1: Striga asiatica wild-type defensin SEQ ID NO: 719 with N-terminal alanine, expressed in Pichia pastoris (RKCESKSQQFKGLCFIKANCAAVCRTEGFHSGHCRGFRRRCYCTKHC; N-terminal alanine added; listed as Striga asiatica)
- F. graminearum PH-1 MIC Day1 [1]: 6 µM
- Z. tritici IPO323 MIC Day 1 [2]: 3 µM
- Z. tritici IPO323 MIC Day 7 [2]: 5 µM
- Z. tritici IPO323 MIC Day 14 [2]: 10 µM
- B. cinerea T4 MIC Day1 (Botrytis cinerea T4): 6 µM

Substance: PD94.1.1: Solanum lycopersicum wild-type defensin SEQ ID NO: 593 with N-terminal alanine, expressed in Pichia pastoris (KLCQYHSETFHGVCVTGNNCNRHCQRENFEGGRCHGIRHYRCVCYRTC; N-terminal alanine; listed as Solanum lycopersicum)
- F. graminearum PH-1 MIC Day1 [1]: >12 µM
- Z. tritici IPO323 MIC Day 1 [2]: >12 µM
- Z. tritici IPO323 MIC Day 7 [2]: >12 µM
- Z. tritici IPO323 MIC Day 14 [2]: >12 µM
- B. cinerea T4 MIC Day1 (Botrytis cinerea T4): >12 µM

Substance: PD84.1.1: Striga asiatica wild-type defensin SEQ ID NO: 546 with N-terminal alanine, expressed in Pichia pastoris (KICEYKSERFWGVCLSDIKCADVCKDESFESGDCQGLRRRCMCYNHC; N-terminal alanine added; listed as Striga asiatica)
- F. graminearum PH-1 MIC Day1 [1]: >12 µM
- Z. tritici IPO323 MIC Day 1 [2]: >12 µM
- Z. tritici IPO323 MIC Day 7 [2]: >12 µM
- Z. tritici IPO323 MIC Day 14 [2]: >12 µM
- B. cinerea T4 MIC Day1 (Botrytis cinerea T4): >12 µM

Substance: PD83.1.1: Eucalyptus grandis wild-type defensin SEQ ID NO: 542 with N-terminal alanine, expressed in Pichia pastoris (RMCESQSHKFHGLCMSDRTCVVVCKEEDFDDGKCRGFRHRCFCRKPC; N-terminal alanine added; listed as Eucalyptus grandis)
- F. graminearum PH-1 MIC Day1 [1]: >12 µM
- B. cinerea T4 MIC Day1 (Botrytis cinerea T4): >12 µM

Substance: PD95.1.1: Mimulus guttatus wild-type defensin SEQ ID NO: 598 with N-terminal alanine, expressed in Pichia pastoris (RHCESPSHRFKGICVRKSNCAAICQTEGFSSGKCRGFRSRCVCIKHC; N-terminal alanine; listed as Mimulus guttatus)
- MIC, in-vitro antifungal activity against F. graminearum [1]: 0.75 µM
- F. graminearum PH-1 MIC Day1 [1]: 0.75 µM
- B. cinerea T4 MIC Day1 (Botrytis cinerea T4): 0.75 µM

Substance: PD99.1.1: Theobroma cacao wild-type defensin SEQ ID NO: 616 with N-terminal alanine, expressed in Pichia pastoris (KLCQKRSKTWTGPCIKTKNCDHQCRKWEKAQHGACHWQWPGFACFCYVNC; N-terminal alanine; Theobroma cacao)
- MIC, in-vitro antifungal activity against F. graminearum [1]: 0.75 µM
- F. graminearum PH-1 MIC Day1 [1]: 0.75 µM
- B. cinerea T4 MIC Day1 (Botrytis cinerea T4): 0.75 µM

Substance: PD120.1.1: Setaria italica wild-type defensin SEQ ID NO: 706 with N-terminal alanine, expressed in Pichia pastoris (DRCETHSRTYKGRCNNHNCWSICITEGNTGGFCKGTLLLKCMCTSEC; N-terminal alanine added; listed as Setaria italica)
- F. graminearum PH-1 MIC Day1 [1]: 12 µM
- B. cinerea T4 MIC Day1 (Botrytis cinerea T4): >12 µM
